What follows are compounds tested against Ubiquitin carboxyl-terminal hydrolase 1/WD repeat-containing protein 48 (Homo sapiens, UniProt O94782+Q8TAF3) (assay: In Vitro USP1  Inhibitory Activity).
Method: Experimental Methods1) Preparation of 1× assay buffer: 1× assay buffer (modified Tris buffer) was prepared;2) Compound dilution: The compound was transferred to the assay plate by Echo.

Sequence of Ubiquitin carboxyl-terminal hydrolase 1/WD repeat-containing protein 48 (O94782 whole entry): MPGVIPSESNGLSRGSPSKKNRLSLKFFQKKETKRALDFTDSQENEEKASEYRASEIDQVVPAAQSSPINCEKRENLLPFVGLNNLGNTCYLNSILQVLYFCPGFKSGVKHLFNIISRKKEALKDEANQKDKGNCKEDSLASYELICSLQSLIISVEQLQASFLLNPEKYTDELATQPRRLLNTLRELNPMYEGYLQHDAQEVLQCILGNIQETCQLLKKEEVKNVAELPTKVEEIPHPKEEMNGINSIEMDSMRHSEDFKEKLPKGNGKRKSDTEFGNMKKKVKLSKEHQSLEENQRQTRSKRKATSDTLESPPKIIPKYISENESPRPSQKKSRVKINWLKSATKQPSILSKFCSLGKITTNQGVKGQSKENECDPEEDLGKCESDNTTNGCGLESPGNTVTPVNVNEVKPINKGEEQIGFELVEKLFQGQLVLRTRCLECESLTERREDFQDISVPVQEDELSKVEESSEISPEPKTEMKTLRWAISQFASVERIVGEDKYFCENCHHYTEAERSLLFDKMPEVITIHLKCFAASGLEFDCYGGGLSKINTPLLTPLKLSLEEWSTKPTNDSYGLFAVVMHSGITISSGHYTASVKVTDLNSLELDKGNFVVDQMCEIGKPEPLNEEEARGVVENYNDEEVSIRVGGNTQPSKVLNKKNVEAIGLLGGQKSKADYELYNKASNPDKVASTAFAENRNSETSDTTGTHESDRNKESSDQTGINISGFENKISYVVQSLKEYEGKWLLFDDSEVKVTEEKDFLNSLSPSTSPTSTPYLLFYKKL
Sequence of Ubiquitin carboxyl-terminal hydrolase 1/WD repeat-containing protein 48 (Q8TAF3 whole entry): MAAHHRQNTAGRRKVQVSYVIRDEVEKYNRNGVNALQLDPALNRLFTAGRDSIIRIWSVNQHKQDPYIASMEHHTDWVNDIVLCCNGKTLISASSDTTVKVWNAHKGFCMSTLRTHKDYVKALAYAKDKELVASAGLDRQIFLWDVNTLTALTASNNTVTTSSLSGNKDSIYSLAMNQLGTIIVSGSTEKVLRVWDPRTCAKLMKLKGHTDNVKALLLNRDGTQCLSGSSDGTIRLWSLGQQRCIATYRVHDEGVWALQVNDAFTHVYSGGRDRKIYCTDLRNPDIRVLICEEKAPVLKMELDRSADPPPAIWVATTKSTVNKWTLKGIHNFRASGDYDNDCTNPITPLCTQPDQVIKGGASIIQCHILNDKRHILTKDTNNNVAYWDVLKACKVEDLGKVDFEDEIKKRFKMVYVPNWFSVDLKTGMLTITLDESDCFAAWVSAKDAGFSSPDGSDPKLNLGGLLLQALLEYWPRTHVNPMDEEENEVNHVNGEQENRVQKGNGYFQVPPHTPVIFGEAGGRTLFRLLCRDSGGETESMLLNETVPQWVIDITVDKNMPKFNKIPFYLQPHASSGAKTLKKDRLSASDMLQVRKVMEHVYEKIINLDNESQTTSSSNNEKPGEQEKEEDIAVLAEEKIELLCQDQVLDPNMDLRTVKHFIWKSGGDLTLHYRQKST

IC50 [nM] | SMILES
24 | COc1ncnc(C2CC2)c1-c1ncc(CO)c(NCc2ccc(-c3nc(C(F)(F)F)cn3C(C)C)cc2)n1 [US20250289799, Example 137]
17 | COc1cc(-c2nc(C(F)(F)F)cn2C)ccc1CNc1nc(-c2c(OC)ncnc2C2CC2)ncc1OC(F)F [US20250289799, Example 136]
16 | COc1cnc(-c2c(OC)ncnc2C2CC2)nc1NCc1ccc(-c2nc(C(F)(F)F)cn2CF)cc1 [US20250289799, Example 107]
37 | COc1ncnc(C2CC2)c1-c1ncc2c(n1)N(CC1CCN(c3nc(C(F)(F)F)cn3C)CC1)C(=O)CO2 [US20250289799, Example 30]
77 | COc1ncnc(C2CC2)c1-c1nc(NCc2ccc3c(c2)CCN(C(C)C)C3=O)c2occc2n1 [US20250289799, Example 115]
51 | COc1cnc(-c2cncnc2C2CC2)nc1NCc1ccc(-c2nc(C(F)(F)F)cn2C)cc1 [US20250289799, Example 194]
3.5 | COc1cnc(-c2c(OC)ncnc2C2CC2)nc1N(C#N)Cc1ccc(-c2nc(C(F)(F)F)cn2C)cc1 [US20250289799, Example 206]
5.6 | COc1cnc(-c2ccccc2C(C)C)nc1NCc1ccc(-c2ccc(C)cn2)cc1 [US20250289799, Example 66]
3.1 | COc1ncnc(C2CC2)c1-c1ncc(Cl)c(NCc2ccc(-c3nc(C(F)(F)F)cn3C3CC3)cc2)n1 [US20250289799, Example 125]
9.2 | COc1cc(CNc2nc(-c3ccccc3C(C)C)ncc2OC)ccc1-n1nc(C(F)(F)F)cc1C [US20250289799, Example 69]
5.3 | COc1ncnc(C2CC2)c1-c1ncc(OC(C)C)c(N(C)Cc2ccc(-c3nc(C(F)(F)F)cn3C)cc2)n1 [US20250289799, Example 109]
26 | COc1cnc(-c2ccccc2C(C)C)nc1N(C)Cc1ccc(-c2ccccn2)cc1 [US20250289799, Example 1]
1.4 | COc1cnc(-c2c(OC)ncnc2C2CC2)nc1NCC12C3C4C1C1C2C3C41c1nc(C(F)(F)F)cn1C1CC1 (centres undefined) [US20250289799, Example 216]
10 | CC(C)c1ccccc1-c1ncc(N2CCN(C)CC2)c(NCc2ccc(-c3nc(C(F)(F)F)cn3C)cc2)n1 [US20250289799, Example 88]
6.2 | CC(C)c1ccccc1-c1ncc(N2CCOCC2)c(NCc2ccc(-c3nc(C(F)(F)F)cn3C)cc2)n1 [US20250289799, Example 87]
3.8 | COc1cnc(-c2c(Cl)cnn2C2CC2)nc1NCc1ccc(-c2nc(C(F)(F)F)cn2C)cc1 [US20250289799, Example 192]
3.9 | CC(C)c1ccccc1-c1ncc(C(F)(F)F)c(NCc2ccc(-c3nc(C(F)(F)F)cn3C)cc2)n1 [US20250289799, Example 17]
1.5 | COc1cnc(-c2c(OC)ncnc2C2CC2)nc1N(C)Cc1ccc(-c2nc(C(F)(F)F)cn2C(C)C)cc1 [US20250289799, Example 93]
19 | [2H]C([2H])([2H])N(Cc1ccc(-c2nc(C(F)(F)F)cn2CF)cc1)c1nc(-c2c(OC)ncnc2C2CC2)ncc1F [US20250289799, Example 130]
564 | COc1ncnc(C2CC2)c1-c1ncc2c(n1)N(CC1CCN(c3ccccn3)CC1)CCO2 [US20250289799, Example 10]
68.6 | COc1cnc(-c2cccc3ccn(C)c23)nc1NCc1ccc(-n2nc(C(F)(F)F)cc2C)cc1 [US20250289799, Example 144]
6.8 | Cc1cc(C(F)(F)F)nn1-c1ccc(CN2C(=O)COc3cnc(-c4ccccc4C(C)C)nc32)cc1 [US20250289799, Example 15]

IC50 [nM] | SMILES
1.1 | COc1cnc(-c2c(Cl)cnn2C(C)C)nc1NCc1ccc(-c2nc(C(F)(F)F)cn2C)cc1 [US20250289799, Example 164]
43 | COc1cnc(-c2c(C)cnn2C2CC2)nc1N(O)Cc1ccc(-c2nc(C(F)(F)F)cn2C)cc1 [US20250289799, Example 205]
1.2 | Cc1cc(C(F)(F)F)nn1-c1ccc(CNc2nc(-c3c(Cl)cnn3C(C)C)nc3ccoc23)cc1 [US20250289799, Example 168]
6.5 | COc1cnc(-c2c(OC)ncnc2C2CC2)nc1NCc1ccc(-c2ccccn2)cc1 [US20250289799, Example 94]
2.1 | CC(C)n1ncc(Cl)c1-c1nc(NCc2ccc(-c3ccccn3)cc2)c2occc2n1 [US20250289799, Example 166]
30.1 | CC(C)c1ccccc1-c1ncc(C(F)(F)F)c(NCC2CCN(c3ccccn3)CC2)n1 [US20250289799, Example 76]
8.3 | COc1cc(-n2nc(C(F)(F)F)cc2C)ccc1CNc1nc(-c2c(OC)ncnc2C2CC2)nc2ccoc12 [US20250289799, Example 121]
6.4 | CC(C)c1ccccc1-c1nc(NCc2ccc3c(c2)CCN(C(C)C)C3=O)c2occc2n1 [US20250289799, Example 78]
1 | Cn1cc(C(F)(F)F)nc1-c1ccc(CNc2nc(-c3ccccc3C3CC3)nc3ccoc23)cc1 [US20250289799, Example 173]
3 | COc1cnc(-c2c(C)cnn2C(C)C)nc1NCc1ccc(-c2nc(C(F)(F)F)cn2C)cc1 [US20250289799, Example 202]
7.4 | COc1ncnc(C2CC2)c1-c1ncc(C#N)c(NCc2ccc(-c3nc(C(F)(F)F)cn3C)cc2)n1 [US20250289799, Example 131]
10.4 | COc1ncnc(C2CC2)c1-c1ncc(OC(C)C)c(NCc2ccc(-c3nc(C(F)(F)F)cn3C)cc2)n1 [US20250289799, Example 111]
25 | COc1cnc(-c2c(OC)ncnc2C2CC2)nc1N(Cc1ccc(-c2nc(C(F)(F)F)cn2C)cc1)OC [US20250289799, Example 142]
1.7 | COc1cnc(-c2ccccc2N(C)C)nc1NCc1ccc(-c2nc(C(F)(F)F)cn2C)cc1 [US20250289799, Example 159]
19 | COc1cnc(-c2cccc3c2N(C)CC3)nc1NCc1ccc(-c2nc(C(F)(F)F)cn2C)cc1 [US20250289799, Example 145]
19.4 | COc1ncnc(C2CC2)c1-c1nc(NCc2ccc(OCc3ccccn3)cc2)c2occc2n1 [US20250289799, Example 116]
28 | CC(C)c1ccccc1-c1nc(NCc2ccc3c(c2)CCN(C)C3=O)c2occc2n1 [US20250289799, Example 77]
13 | COc1cc(CNc2nc(-c3c(OC)ncnc3C3CC3)nc3ccoc23)ccc1-n1nc(C(F)(F)F)cc1C [US20250289799, Example 122]
19.7 | COc1ncnc(C2CC2)c1-c1ncc(OC(C)C)c(N(C)CC2CCN(c3nc(C(F)(F)F)cn3C)CC2)n1 [US20250289799, Example 108]
14 | COc1cnc(-c2ccccc2C(C)C)nc1N(C)CC1CCN(c2ccccn2)CC1 [US20250289799, Example 2]
110 | COc1cnc(-c2c(OC)cnn2C(C)C)nc1NCc1ccc(-c2ccccn2)cc1 [US20250289799, Example 178]
266 | COc1ncnc(C2CC2)c1-c1ncc(OC(C)C)c(NCC23CCC(c4ccc(C(F)(F)F)cn4)(CC2)CC3)n1 [US20250289799, Example 112]

IC50 [nM] | SMILES
1.2 | CC(C)c1ccccc1-c1nc(NCc2ccc(-c3nc(C(F)(F)F)cn3C)cc2)c2occc2n1 [US20250289799, Example 33]
164 | COc1cnc(-c2c(OC)cnn2C2CC2)nc1NCc1ccc(-c2ccccn2)cc1 [US20250289799, Example 183]
75 | COc1cnc(-c2c(OC)cnn2C(C)C)nc1N(C)CC1CCN(c2ccccn2)CC1 [US20250289799, Example 177]
1.6 | COc1cnc(-c2c(Cl)cnn2C(C)C)nc1NCC12CCC(c3nc(C(F)(F)F)cn3C)(CC1)OC2 [US20250289799, Example 209]
4.4 | COc1cc(-n2nc(C(F)(F)F)cc2C)ccc1CNc1nc(-c2c(OC)ncnc2C2CC2)ncc1OC [US20250289799, Example 102]
3.6 | COc1cc(-c2nc(C(F)(F)F)cn2C)ccc1CNc1nc(-c2ccccc2C2CC2)nc2ccoc12 [US20250289799, Example 175]
3.7 | COc1cnc(-c2ccccc2C(C)C)nc1NCc1ccc(-c2ccccn2)cc1 [US20250289799, Example 64]
2.1 | COc1cnc(-c2ccccc2C(C)C)nc1N(C)CC1CCN(c2nc(C(F)(F)F)cn2C)CC1 [US20250289799, Example 62]
2.6 | [2H]C([2H])([2H])N(Cc1ccc(-c2nc(C(F)(F)F)cn2C2CC2)cc1)c1nc(-c2c(OC)ncnc2C2CC2)ncc1F [US20250289799, Example 128]
1.4 | C#Cc1cnc(-c2c(C)cnn2C(C)C)nc1NCc1ccc(-c2nc(C(F)(F)F)cn2C)cc1 [US20250289799, Example 203]
1.2 | COc1cnc(-c2ccccc2C(C)C)nc1NCc1ccc(-c2nc(C(F)(F)F)cn2C)cc1 [US20250289799, Example 4]
6.1 | CC(C)Oc1cnc(-c2ccccc2C(C)C)nc1NCC1CCN(c2nc(C(F)(F)F)cn2C)CC1 [US20250289799, Example 72]
648 | COc1ncnc(C2CC2)c1-c1nc(NCc2ccc3c(c2)CCN(C)C3=O)c2occc2n1 [US20250289799, Example 114]
60 | COc1cnc(-c2c(OC)ncnc2C2CC2)nc1NCc1ccc(-c2nc(C)cn2C(F)F)cc1 [US20250289799, Example 105]
22.4 | CC(C)c1ccccc1-c1nc(NCc2ccc(-c3ccccn3)cc2)c2[nH]ccc2n1 [US20250289799, Example 36]
3.2 | CCOCCOc1ccc(CNc2nc(-c3ccccc3C(C)C)ncc2OC)cc1 [US20250289799, Example 68]
4 | COc1cc(CNc2nc(-c3ccccc3C3CC3)nc3ccoc23)ccc1-c1nc(C(F)(F)F)cn1C [US20250289799, Example 176]
15.1 | CCOCCOc1ccc(CNc2nc(-c3c(OC)ncnc3C3CC3)ncc2OC)cc1 [US20250289799, Example 99]
26 | COC1CC(Oc2ccc(CNc3nc(-c4ccccc4C(C)C)nc4ccoc34)cc2)C1 (centres undefined) [US20250289799, Example 80]
6 | COc1cnc(-c2c(Cl)cnn2C(C)C)nc1N(C)CC1CCN(c2ccccn2)CC1 [US20250289799, Example 161]
